These are literature values, as cited in article PMC4891577, “Exploiting Phenylpropanoid Derivatives to Enhance the Nutraceutical Values of Cereals and Legumes” (Frontiers in Plant Science, 2016).

The test system of the first data set is Caco-2 cells. Also noted: method as in Hart et al., 2015. The note with it: polyphenols of black bean seed coats; ref Hart et al., 2015.
As to `O=C(O)c1ccc(O)c(O)c1` [3,4-dihydroxybenzoic acid], the “effect on Fe uptake” value is listed as “promote Fe uptake”.

Regarding `O.Oc1cc(O)c2c(c1)O[C@H](c1ccc(O)c(O)c1)[C@@H](O)C2` [Catechin], the “effect on Fe uptake” value is reported as “promote Fe uptake”.

Turning to `O=c1c(O[C@@H]2O[C@H](CO)[C@@H](O)[C@H](O)[C@H]2O)c(-c2ccc(O)cc2)oc2cc(O)cc(O)c12` [kaempferol 3-glucoside], the “effect on Fe uptake” value is reported as “promote Fe uptake”.

Take `O=c1c(O)c(-c2ccc(O)cc2)oc2cc(O)cc(O)c12` [kaempferol]: the “effect on Fe uptake” value is “promote Fe uptake”.

For the compound `O=c1c(OC2O[C@H](CO)[C@@H](O)[C@H](O)[C@H]2O)c(-c2cc(O)c(O)c(O)c2)oc2cc(O)cc(O)c12` (stereo partly drawn) [myricetin 3-glucoside], the “effect on Fe uptake” value is on record as “inhibit Fe uptake”.

Take `O=c1c(O)c(-c2cc(O)c(O)c(O)c2)oc2cc(O)cc(O)c12` [myricetin]: the “effect on Fe uptake” value is “inhibit Fe uptake”.

For `O=c1c(O[C@@H]2O[C@H](CO)[C@@H](O)[C@H](O)[C@H]2O)c(-c2ccc(O)c(O)c2)oc2cc(O)cc(O)c12` [quercetin 3-glucoside], the “effect on Fe uptake” value is reported as “inhibit Fe uptake”.

Take `O=c1c(O)c(-c2ccc(O)c(O)c2)oc2cc(O)cc(O)c12` [quercetin]: the “effect on Fe uptake” value is on record as “inhibit Fe uptake”.

In the next data set the test system is lipogenic proteins. Also noted: method as in Chavez-Santoscoy et al., 2014; Ramírez-Jiménez et al., 2015. The note with it: black bean flavonoid; ref Chavez-Santoscoy et al., 2014; Ramírez-Jiménez et al., 2015.
As to `O=c1c(O[C@@H]2O[C@H](CO)[C@@H](O)[C@H](O)[C@H]2O)c(-c2ccc(O)c(O)c2)oc2cc(O)cc(O)c12` [quercetin 3-glucoside], the “effect on expression of lipogenic proteins” value is recorded as “strong effects on down-regulation of expression of lipogenic proteins”.
